Assay results as given in ChEMBL document CHEMBL3286097, “Dual carbonic anhydrase/matrix metalloproteinase inhibitors incorporating bisphosphonic acid moieties targeting bone tumors” (Bioorg Med Chem Lett, 2014).
The source made the active and inactive calls. The rule behind the calls is not given here.

Experiments:
Carbonic anhydrase 1 [1] = target: T1, Carbonic anhydrase 1 (Homo sapiens, UniProt P00915)
Target sequence in this assay (P00915 whole entry): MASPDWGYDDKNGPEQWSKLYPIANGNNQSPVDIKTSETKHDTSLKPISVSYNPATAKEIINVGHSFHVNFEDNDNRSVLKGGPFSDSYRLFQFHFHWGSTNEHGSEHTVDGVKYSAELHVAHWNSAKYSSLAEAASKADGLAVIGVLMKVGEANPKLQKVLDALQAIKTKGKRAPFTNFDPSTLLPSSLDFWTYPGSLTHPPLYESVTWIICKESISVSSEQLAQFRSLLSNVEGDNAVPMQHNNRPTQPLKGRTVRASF
Description: Inhibition of human recombinant carbonic anhydrase 1 pretreated for 15 mins by stopped flow CO2 hydrase assay

Carbonic anhydrase 14 = Carbonic anhydrase 14 (Homo sapiens, UniProt Q9ULX7)
Description: Inhibition of human recombinant carbonic anhydrase 14 pretreated for 15 mins by stopped flow CO2 hydrase assay

[2] = target: 72 kDa type IV collagenase (Homo sapiens, UniProt P08253)
Chain of 72 kDa type IV collagenase (P08253 whole entry): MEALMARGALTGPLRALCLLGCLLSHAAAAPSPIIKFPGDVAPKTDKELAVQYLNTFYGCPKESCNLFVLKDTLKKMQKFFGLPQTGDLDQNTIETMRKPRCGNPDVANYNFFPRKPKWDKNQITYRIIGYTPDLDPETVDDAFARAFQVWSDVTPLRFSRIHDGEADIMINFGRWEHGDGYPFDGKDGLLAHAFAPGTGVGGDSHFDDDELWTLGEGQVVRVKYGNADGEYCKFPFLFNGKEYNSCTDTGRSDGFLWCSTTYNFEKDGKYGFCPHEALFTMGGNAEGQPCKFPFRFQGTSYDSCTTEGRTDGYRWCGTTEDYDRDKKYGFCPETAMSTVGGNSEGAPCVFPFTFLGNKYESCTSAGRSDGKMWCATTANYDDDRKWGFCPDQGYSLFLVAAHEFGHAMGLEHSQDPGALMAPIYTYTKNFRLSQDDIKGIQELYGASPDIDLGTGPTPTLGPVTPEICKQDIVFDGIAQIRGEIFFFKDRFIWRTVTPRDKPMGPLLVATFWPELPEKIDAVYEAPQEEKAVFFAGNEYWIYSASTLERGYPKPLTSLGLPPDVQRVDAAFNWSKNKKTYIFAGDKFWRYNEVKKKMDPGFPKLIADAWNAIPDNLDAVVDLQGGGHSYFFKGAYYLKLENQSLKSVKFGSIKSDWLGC

Carbonic anhydrase 9 = Carbonic anhydrase 9 (Homo sapiens, UniProt Q16790)
Description: Inhibition of human recombinant carbonic anhydrase 9 pretreated for 15 mins by stopped flow CO2 hydrase assay

Carbonic anhydrase 2 = Carbonic anhydrase 2 (Homo sapiens, UniProt P00918)
Description: Inhibition of human recombinant carbonic anhydrase 2 pretreated for 15 mins by stopped flow CO2 hydrase assay

Carbonic anhydrase 12 = Carbonic anhydrase 12 (Homo sapiens, UniProt O43570)
Chain of Carbonic anhydrase 12 (O43570 whole entry): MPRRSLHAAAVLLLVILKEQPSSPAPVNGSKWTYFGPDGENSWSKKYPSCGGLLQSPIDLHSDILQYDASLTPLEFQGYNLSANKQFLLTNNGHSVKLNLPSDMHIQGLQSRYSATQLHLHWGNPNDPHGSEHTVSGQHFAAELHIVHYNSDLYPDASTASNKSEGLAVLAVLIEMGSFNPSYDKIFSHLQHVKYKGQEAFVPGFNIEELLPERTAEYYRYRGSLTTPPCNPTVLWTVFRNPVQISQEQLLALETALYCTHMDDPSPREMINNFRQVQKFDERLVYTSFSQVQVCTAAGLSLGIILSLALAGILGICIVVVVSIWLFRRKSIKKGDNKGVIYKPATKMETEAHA
Description: Inhibition of human recombinant carbonic anhydrase 12 pretreated for 15 mins by stopped flow CO2 hydrase assay

J774 = test: Cytotoxicity against mouse J774 cells assessed as reduction in cell viability; assay type: functional, cell-based
Carbonic anhydrase 1 [3] = target: T1, Carbonic anhydrase 1; test: Activation of human recombinant carbonic anhydrase 1 pretreated for 15 mins by stopped flow CO2 hydrase assay
Target sequence in this assay (P00915 2-261 limits assumed): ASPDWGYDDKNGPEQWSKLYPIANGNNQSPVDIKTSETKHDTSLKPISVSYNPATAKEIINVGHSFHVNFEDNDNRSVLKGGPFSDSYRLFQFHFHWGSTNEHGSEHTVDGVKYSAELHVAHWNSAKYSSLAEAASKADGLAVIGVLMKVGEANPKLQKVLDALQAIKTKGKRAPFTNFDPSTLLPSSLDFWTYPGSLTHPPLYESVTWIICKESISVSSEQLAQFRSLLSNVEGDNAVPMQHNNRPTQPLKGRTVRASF

Chain of Carbonic anhydrase 14 (Q9ULX7 whole entry): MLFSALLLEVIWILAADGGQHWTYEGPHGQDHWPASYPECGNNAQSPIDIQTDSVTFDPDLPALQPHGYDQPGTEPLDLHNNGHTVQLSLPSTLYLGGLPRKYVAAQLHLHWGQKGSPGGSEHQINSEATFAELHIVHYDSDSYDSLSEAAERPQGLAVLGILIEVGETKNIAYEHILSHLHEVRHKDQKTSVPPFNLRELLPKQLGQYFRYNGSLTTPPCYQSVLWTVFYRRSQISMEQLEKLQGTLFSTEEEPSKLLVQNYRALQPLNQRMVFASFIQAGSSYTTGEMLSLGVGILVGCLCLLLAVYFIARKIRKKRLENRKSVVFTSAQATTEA

IC50 (Carbonic anhydrase 1 [1]) | IC50 (Carbonic anhydrase 14) | IC50 [2] | IC50 (Carbonic anhydrase 9) | IC50 (Carbonic anhydrase 2) | IC50 (Carbonic anhydrase 12) | Activity (Carbonic anhydrase 1 [3]) | SMILES | IC50 (J774)
> 10 µM | 0.541 µM | 18 µM | 0.2 µM | > 100 µM | 0.461 µM | – | Cc1ccc(S(=O)(=O)NC(P(=O)(O)O)P(=O)(O)O)cc1 | –
> 10 µM | 6.59 µM | 9.5 µM | 0.095 µM | 6.16 µM | 0.464 µM | – | O=P(O)(O)C(NS(=O)(=O)c1ccc(Cl)cc1)P(=O)(O)O | –
6.8 µM | 0.729 µM | – | 0.347 µM | 1.41 µM | 0.386 µM | – | O=P(O)(O)C(NS(=O)(=O)c1ccc(-c2ccccc2)cc1)P(=O)(O)O | 4.9 µM
– | – | 49 µM | 860 µM | 1250 µM | – | Active | O=P(O)(O)CP(=O)(O)O [MEDRONIC ACID] | –
> 10 µM | 0.092 µM | 4.9 µM | 0.078 µM | 1.83 µM | 0.092 µM | – | O=[N+]([O-])c1ccc(S(=O)(=O)NC(P(=O)(O)O)P(=O)(O)O)cc1 | –
> 10 µM | 6.05 µM | 30 µM | > 10 µM | > 10 µM | 0.278 µM | – | O=C(NC(P(=O)(O)O)P(=O)(O)O)c1ccc(Br)cc1 | –
9.03 µM | 0.082 µM | 0.192 µM | 0.596 µM | 0.071 µM | 0.065 µM | – | O=[N+]([O-])c1ccc(-c2ccc(S(=O)(=O)NC(P(=O)(O)O)P(=O)(O)O)cc2)cc1 | 32 µM
> 10 µM | 6.05 µM | 52 µM | > 10 µM | > 10 µM | 0.225 µM | – | O=P(O)(O)C(P(=O)(O)O)S(=O)(=O)c1ccc(Br)cc1 | –
> 10 µM | 0.516 µM | 19 µM | 0.09 µM | > 10 µM | 0.376 µM | – | COc1ccc(S(=O)(=O)NC(P(=O)(O)O)P(=O)(O)O)cc1 | –
0.041 µM | 0.07 µM | 0.11 µM | 0.084 µM | 0.07 µM | 0.076 µM | – | COc1ccc(-c2ccc(S(=O)(=O)NC(P(=O)(O)O)P(=O)(O)O)cc2)cc1 | 12 µM
> 10 µM | 0.898 µM | 4.8 µM | 0.234 µM | > 10 µM | 0.062 µM | – | O=P(O)(O)C(NS(=O)(=O)c1ccc(Br)cc1)P(=O)(O)O | –
> 10 µM | 3.31 µM | 15.8 µM | 0.397 µM | > 100 µM | 0.855 µM | – | O=P(O)(O)C(NS(=O)(=O)c1ccccc1)P(=O)(O)O | –
> 10 µM | > 10 µM | 16 µM | 2.67 µM | 3.82 µM | 0.794 µM | – | O=[N+]([O-])c1cccc(S(=O)(=O)NC(P(=O)(O)O)P(=O)(O)O)c1 | –
6.17 µM | 0.593 µM | 0.23 µM | 0.601 µM | 0.504 µM | 0.087 µM | – | O=P(O)(O)C(NS(=O)(=O)c1ccc(-c2cccs2)cc1)P(=O)(O)O | 12 µM
1.75 µM | 2.44 µM | 0.037 µM | 6.13 µM | 2.66 µM | 0.476 µM | – | O=P(O)(O)C(NS(=O)(=O)c1ccc(-c2ccc(Cl)cc2)cc1)P(=O)(O)O | 1.7 µM

SMILES | IC50 (Carbonic anhydrase 1 [1]) | IC50 (Carbonic anhydrase 14) | IC50 [2] | IC50 (Carbonic anhydrase 9) | IC50 (Carbonic anhydrase 2) | IC50 (Carbonic anhydrase 12) | Activity (Carbonic anhydrase 1 [3]) | IC50 (J774)
O=P(O)(O)C(O)(Cn1ccnc1)P(=O)(O)O [ZOLEDRONIC ACID] | > 10 µM | – | – | – | – | – | – | 7.8 µM
